Measurements from patent publication US9108930B2, “N1- and N2-carbamoyl-1,2,3-triazole serine hydrolase inhibitors and methods” (The Scripps Research Institute, priority 2011, dated 2015).

Columns and labels:
[1] = target: T1, APEH (Mus musculus, UniProt Q8R146); assay: Fluorogenic APEH substrate assay on brain proteomes of treated mice; format: in vivo; conditions: 0.4 mg/kg; brain proteome
T1 sequence (Q8R146 1-732): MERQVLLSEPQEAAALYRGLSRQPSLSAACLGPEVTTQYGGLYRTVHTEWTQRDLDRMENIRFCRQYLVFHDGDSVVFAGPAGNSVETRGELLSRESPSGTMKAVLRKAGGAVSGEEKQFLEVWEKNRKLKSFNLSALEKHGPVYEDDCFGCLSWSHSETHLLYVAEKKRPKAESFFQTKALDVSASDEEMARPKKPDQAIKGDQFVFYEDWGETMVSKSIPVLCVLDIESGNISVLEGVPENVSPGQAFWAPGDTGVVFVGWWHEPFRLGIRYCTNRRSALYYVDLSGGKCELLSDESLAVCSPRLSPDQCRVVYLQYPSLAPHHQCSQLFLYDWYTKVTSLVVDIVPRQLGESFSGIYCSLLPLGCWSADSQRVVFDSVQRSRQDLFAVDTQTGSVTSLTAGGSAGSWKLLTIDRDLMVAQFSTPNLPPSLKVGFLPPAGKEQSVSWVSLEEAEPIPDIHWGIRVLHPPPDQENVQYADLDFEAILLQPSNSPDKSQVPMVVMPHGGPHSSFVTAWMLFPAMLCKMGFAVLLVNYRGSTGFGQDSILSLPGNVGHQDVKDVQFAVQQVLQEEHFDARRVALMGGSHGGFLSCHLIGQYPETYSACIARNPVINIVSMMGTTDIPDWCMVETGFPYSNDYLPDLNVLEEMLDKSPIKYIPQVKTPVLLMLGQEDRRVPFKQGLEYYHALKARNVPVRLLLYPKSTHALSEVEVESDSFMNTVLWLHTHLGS
Protocol: APEH activity assay was performed using fluorogenic substrate N-Acetyl-L-alanine p-nitroanilide.
Soluble brain proteomes (100 μL of 1 mg/mL protein) from AA74-1 (or vehicle)-injected mice were treated in a 96-well plate with N-acetyl-L-alanine 4-nitroanilide (100 μM final concentration) and the samples were incubated for 2 h at 37° C. Relative absorbance was measured with a plate reader at […]. Inhibition curves were generated using PRISM® software (GraphPad). Calculated values represent means±s.e.m for three independent experiments.

[2] = target: T2, ABHD6 (Mus musculus, UniProt Q8R2Y0); assay: ABPP-SILAM of brain tissue from treated mice; format: in vivo; parameters: from tissue; host or cells: thioglycolate-elicited peritoneal macrophages of mice; conditions: may not represent actual changes
T2 sequence (Q8R2Y0 1-336): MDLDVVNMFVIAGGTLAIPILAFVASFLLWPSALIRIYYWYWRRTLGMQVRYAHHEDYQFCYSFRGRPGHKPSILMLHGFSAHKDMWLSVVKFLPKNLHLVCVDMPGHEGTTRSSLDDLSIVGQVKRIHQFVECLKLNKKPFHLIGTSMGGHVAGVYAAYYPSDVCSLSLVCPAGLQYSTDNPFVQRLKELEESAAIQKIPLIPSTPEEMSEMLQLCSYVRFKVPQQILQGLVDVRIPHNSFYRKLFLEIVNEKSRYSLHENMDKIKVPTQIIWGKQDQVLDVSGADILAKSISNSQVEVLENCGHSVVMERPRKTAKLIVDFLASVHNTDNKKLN
Protocol: The potency and selectivity of 1,2,3-triazole ureas in vivo also was investigated. Mice were treated with the APEH inhibitor AA74-1 at various doses (0.2-1.6 mg/kg; PEG300 or 18:1:1 saline/ethanol/emulphor intraperitoneally) and sacrificed after 4 h. Brains and hearts were removed, homogenized, and analyzed by gel-based competitive ABPP. […] Finally, the possibility of extending ABPP-SILAC for the characterization of inhibitor selectivity in vivo was explored by taking advantage of recently described protocols for stable isotope labeling in mammals (SILAM). In this approach, brain tissues from vehicle- and AA74-1-treated mice were separately mixed with equivalent amounts of brain tissue from ‘heavy’ amino acid-fed mice, and the samples were then labeled with FP-biotin, enriched by avidin chromatography, analyzed by LC-MS, and SH activities quantified by measuring the ratio-of-ratios for observed peptide signals. […] The ratio-of-ratio signals for APEH indicated greater than 90% inhibition of this enzyme in AA74-1-treated animals (FIG. 5b, top), consistent with average spectral count values (14 and 1 spectral counts for APEH in vehicle-treated versus AA74-1-treated mice, respectively; FIG. 5b, bottom). […]
C57BL6 mice were labeled with ^15N. […] Brains were determined to be 95% labeled by mass spectrometry with ^15N and used for quantitative analysis. […]

[3] = target: T3, acetylcholinesterase (ACHE) (Mus musculus, UniProt P21836); assay: Competitive ABPP of ACHE recombinantly expressed in COS-7 cells; format: biochemical; conditions: 30 minutes at 37° C.
T3 construct: full-length cDNAs encoding mouse serine hydrolases were either transfected directly; host or cells: COS-7 cells
T3 sequence (P21836 32-614): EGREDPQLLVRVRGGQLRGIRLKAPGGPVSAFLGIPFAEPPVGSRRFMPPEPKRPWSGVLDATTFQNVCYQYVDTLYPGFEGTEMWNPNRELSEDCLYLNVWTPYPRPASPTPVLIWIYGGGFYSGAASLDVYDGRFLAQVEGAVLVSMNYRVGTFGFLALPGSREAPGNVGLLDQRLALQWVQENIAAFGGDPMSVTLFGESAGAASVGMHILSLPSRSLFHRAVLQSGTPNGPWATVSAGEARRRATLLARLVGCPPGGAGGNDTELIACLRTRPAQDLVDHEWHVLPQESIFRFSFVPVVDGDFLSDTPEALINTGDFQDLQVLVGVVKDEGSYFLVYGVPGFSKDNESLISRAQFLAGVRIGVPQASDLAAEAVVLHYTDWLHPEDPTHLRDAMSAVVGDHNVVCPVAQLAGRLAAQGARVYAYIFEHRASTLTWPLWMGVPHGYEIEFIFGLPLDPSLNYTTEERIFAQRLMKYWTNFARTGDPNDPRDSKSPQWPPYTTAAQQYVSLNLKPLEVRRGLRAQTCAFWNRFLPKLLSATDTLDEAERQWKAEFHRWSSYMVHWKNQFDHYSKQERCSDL
Protocol: ACHE was recombinantly expressed in COS-7 cells. Whole cell proteome was mixed 1:1 with soluble mouse brain proteome and treated with DMSO or AA74-1 in vitro at indicated concentrations for 30 minutes at 37° C., after which the samples were analyzed by competitive ABPP. Note that ACHE migrates as multiple bands by SDS-PAGE due to heterogeneous glycosylation. ACHE inhibition in vivo was not observed, as reflected by the equal signals for this enzyme in competitive ABPP results shown in FIG. 5b.
Briefly, full-length cDNAs encoding mouse serine hydrolases were either transfected directly (if available in a eukaryotic expression vector) or subcloned into pcDNA3 (Invitrogen). COS-7 or HEK-293 cells were grown to about 70% confluence in 10 cm dishes in complete medium (DMEM with L-glutamine, nonessential amino acids, sodium pyruvate, and FCS) at 37° C. and 5% CO2. The cells were transiently transfected by using the appropriate cDNA or empty vector control (“mock”) and the FUGENE® 6 (Roche Applied Science) transfection reagents following the manufacturers' protocols. After 48 hrs, the cells were washed twice with phosphate-buffered saline (PBS), and collected by scraping.

[4] = target: T2, ABHD6; assay: ABPP-SILAC in Neuro2A cells; conditions: about 4 hours; 25 nM

| SMILES | APEH inhibition by substrate assay [1] | partial inhibition of ABHD6 suggested by ratio-of-ratio signals [2] | ACHE inhibition in transfected cell proteome [3] | ABHD6 activity blocked [4] |
| --- | --- | --- | --- | --- |
| CC(C)CC(O)(CC(C)C)c1cnn(C(=O)N2CCCC2)n1 [AA74-1] | Complete inhibition of APEH | 50-60% | not inhibited | – |
| COc1ccc(-c2ccc(-c3cn(C(=O)N4CCCCC4c4ccccc4)nn3)cc2)cc1 (stereo not shown) [KT195] | – | – | – | > 90% |
